Test results reported in patent US20090136470A1, “REGULATORY T CELLS AND METHODS OF MAKING AND USING SAME” (priority 2007, published 2009).

How the values were obtained:
CD4^+CD25^−T cells = experiment: CTLA-4, CD103, CCR9 and CD25 staining of CD4 T cells stimulated with spleen APCs plus TGF-β1 and/or RA; assay type: cell-based, mouse
Protocol: For CD4^+CD25^− T cell isolation, spleens were removed, teased into cell-single suspensions and filtered through a 70 μm cell strainer (Fisher Scientific, USA). CD4^+CD25^−T cells were isolated by negative selection after incubation with a mix of specific biotin-conjugated mAbs (anti-CD8, CD11b, CD11ε, CD25, CD45R (B220), NK1.1, and TER119) at 1/200 dilution, and anti-biotin magnetic microbeads (25-40 μl per spleen) (Miltenyi Biotec, USA).
APCs were isolated from spleen of C57BL/6 mice by negative selection using CD90.2 (Thy1.2) magnetic microbeads to deplete T cells (Miltenyi Biotec).
(§1) The culture medium used for dendritic cell-T cell cultures was Iscove's modified Dulbecco medium (IMDM) (Gibco, USA) supplemented with 10% heat-inactivated FCS, 2 mM L-glutamine, 100 U/ml penicillin, 100 μg/ml streptomycin, and 5 mM β-mercaptoethanol (all Sigma, USA). […] For dendritic cell-T cell cultures, 2×10^4 dendritic cells and 1×10^5 T cells were cultured in a volume of 200 μl (96-well plates). For irradiated APC-T cell cultures, 5×10^5 APCs and 1×10^5 T cells were cultured in a volume of 200 μl in 96-well plates (2×10^6 APCs and 0.5×10^6 T cells per well in 48-well plates). […] For the study shown in FIG. 4A, after sorting of naive CD4^+ cells (CD25^−CD44^lowCD62L^+), cells were washed twice in PBS+0.1% BSA, counted and labeled with 2 μM of CFSE (Carboxyfluorescein diacetate, succinimidyl ester) (Molecular Probes, USA) at a concentration of 5−10×10^6 cells per ml in PBS-0.1% BSA.
To block non-specific staining, the 2.4G2 anti-CD16/32 antibody was added. […] For intracellular cytokine staining, cells obtained from in vitro cultures or isolated IELs were incubated for 4-5 hours with 50 ng/ml PMA, 750 ng/ml Ionomycin (both Sigma, USA) and 10 μg/ml Brefeldin A (Invitrogen, USA) in a tissue culture incubator at 37° C.

CD8^+ spleen T cells = experiment: IL-17^+ cell generation from CD8^+ T cells activated with TGF-β and IL-6
[1] = system: naïve CD4^+T cells from B7.1/2^−/− IL-2^+/+ or B7.1/2^−/− IL-2^−/− mice; experiment: RA-mediated effects on T cell differentiation without IL-2 (anti-IL-2 or IL-2−/− T cells) or with exogenous IL-2; assay type: cell-based, mouse
Protocol: as §1
(§2) For Foxp3 staining, no stimulation with PMA/Ionomycin was performed, with the exceptions of FIGS. 8B and 9A.

RORγt = RORγt mRNA by real-time PCR in CD4 T cells under Th-17 culture conditions; assay type: cell-based, mouse; details: α-CD3ε and α-CD28, IL-17 inducing cytokines
Text: For analysis of RORγ-T mRNA expression, naïve CD4^+T cells were purified essentially as described by Ivanov et al. [Ivanov, II et al., Cell 126, 1121 (2006)]. In brief, CD4+ T cells were purified from spleens of C57BL/6 mice using anti-CD4 magnetic microbeads (Miltenyi Biotec) and MACS columns. CD4^+T cells were stained with anti-CD25-PE, anti-CD4-PECy5, anti-CD62L-FITC, and anti-CD44-APC. The CD4^+CD25^− CD44^lowCD62L^+ T cells population was sorted by flow cytometry using a FACS-DIVA cell sorter (>99% purity). Some studies were also performed using CD4^+CD45RB^high T cell population, sorted as described above.
At different time-points, cells were harvested, washed with sterile PBS and resuspended in TRIZol (Invitrogen, USA). Samples were then frozen and kept at −80° C. for later utilization. For RNA isolation, the whole tissue was homogenized and RNA was separated from DNA and proteins by precipitation with chloroform and extraction with isopropanol. The cDNA was synthesized from the total RNA using the Superscript II system (Invitrogen, USA) following the instructions provided by the manufacturer. […] Data were collected and analyzed on an iCycler Bio-Rad (Hercules, USA).

[2] = system: CD8^+T cells from OT-I TCR transgenic mice
Protocol: as §1, §2

RAR = details: cited from earlier work

SMILES: CC1=C(/C=C/C(C)=C/C=C/C(C)=C/C(=O)O)C(C)(C)CCC1 [RA, All-trans retinoic acid]
- expression of CTLA-4 on TGF-β-generated Foxp3^+ cells (CD4^+CD25^−T cells): promoted the expression of CTLA-4
- induction of CTLA-4 on Foxp3^− and Foxp3^+ activated cells (early) (CD4^+CD25^−T cells; OT-II CD4 T cells, spleen APCs, TGF-β and RA): delayed
- CTLA-4 and Foxp3 phenotype of the majority of cells at later time-points (CD4^+CD25^−T cells; OT-II CD4 T cells, spleen APCs, cultured with TGF-β and RA): both CTLA-4 and Foxp3^+
- TGF-β-mediated CD103 expression on CD4 cells (CD4^+CD25^−T cells; soluble α-CD3ε, spleen APCs, TGF-β1): greatly enhanced
- generation of IL-17^+ T cells from cytotoxic CD8^+ T lymphocytes (CD8^+ spleen T cells; WT or OT-I TCR^+ CD8^+ T cells, TGF-β and IL-6): again able to inhibit this
- Foxp3 / Th-17 differentiation of CD8 T cells under conditions that promote Th-17 differentiation (CD8^+ spleen T cells; cultured with RA): converted to Foxp3^+ cells with a decrease in Th-17 differentiation
- requirement for exogenously added IL-2 [1]: did not require exogenously added IL-2
- CD103 phenotype of the Foxp3^+Tregs generated ([1]; TGF-β-dependent Foxp3 differentiation): mostly CD103^+Tregs
- dependence of Foxp3^+ enhancing and Th-17 inhibitory effects on IL-2 ([1]; anti-IL-2 (20 μg/ml) or IL-2−/− T cells): for the most part dependent on IL-2
- IL-17 cytokine secretion (ELISA) ([1]; culture supernatants): measurably decreased
- RORγt mRNA expression (RORγt): greatly reduced its expression
- CD103 expression on CD8 cells ([2]; TGF-β and RA): synergized to upregulate CD103 expression
- CD25 expression of CD8 T cells upon in vitro activation ([2]; in the presence of TGF-β and RA): down-regulate CD25 expression
- binding to RAR-RAR homodimers and RAR-RXR heterodimers (RAR): can bind
